The test system of one series is Human CD4+ T cells. Description: Sensitivity of human CD4+ T cells to BG and BCNU (expansion in culture). In kind it is cell-based. To be noted: for dose dependence of CD4 cell killing / toxicity: increasing dose. Here is the method: CD14 depleted CD4+ cells were purified from peripheral blood with or without cytokine mobilization. […] Under appropriate conditions in the absence of […] and BCNU, CD4+ cells can be expanded up to 100 fold over 10 days in culture. Doses tested were 0, 0.2, 0.5, 2, 5, 10, 20, 30, and 40 μM BG and 0, 2, 5, 10, 20, 30, and 40 μM BCNU. A series of three experiments were performed.

In another series the test system is HIV. To be noted: human, in vivo; cited from earlier work.
Series [1] has as its system modified U5-containing crHIV RNA. Description: In vitro ribozyme cleavage of radiolabeled modified crHIV U5 RNA (PAGE, autoradiography). In kind it is biochemical. As to conditions: target to ribozyme molar ratio 1:2, 37° C. 5 min. How it is done: (§1) To confirm the resistance to ribozyme cleavage of the crHIV vectors, in vitro transcription was performed. To accomplish this, the ribozyme sequences were cloned into the Xho I site of pBluescript KSII (Stratagene, La Jolla, Calif.). A 0.21 kilobase pair (kb) Bgl II fragment containing the mutated crHIV U5 region similarly was excised from the crHIV vector and inserted into the Bam HI site of pBluescript KSII. The resultant modified pBluescript KSII vectors were linearized with Bss HII prior to in vitro transcription. A similar plasmid expressing wild-type HIV U5 RNA (described in Myers et al. (1994), supra) was employed as a control. It was linearized with Eco RI prior to in vitro transcription.
(§2) Radiolabeled U5 HIV RNA and ribozyme RNA were produced by in vitro transcription of the vectors, as previously described (Dropulic' et al. (1992), supra). The radiolabeled transcripts were incubated together (at a target to ribozyme molar ratio of 1:2) in 1×transcription buffer containing 40 mM Tris-HCl, pH 7.5, 6 mM MgCl2, 2 mM Spermidine, and 10 mM NaCl. The samples were heated to 65° C., and then cooled to 37° C. for 5 min prior to the addition of stop buffer solution containing 95% formamide, 20 mM EDTA, 0.05% Bromophenol Blue, and 0.05% Xylene Cyanol FF. The products' were then resolved by denaturing polyacrylamide gel electrophoresis (PAGE), and detected by autoradiography.

A further series has as its system wild-type U5-HIV RNA. Description: In vitro ribozyme cleavage of radiolabeled wild-type U5 HIV RNA (PAGE, autoradiography). In kind it is biochemical. To be noted: target to ribozyme molar ratio 1:2, 37° C. 5 min. Here is the method:
as §1, §2

For `O=NN(CCCl)C(=O)NCCCl` [BCNU, 1,3-bis(2-chloroethyl)-1-nitrosourea], the “growth delay of CD4+ cells” value with Human CD4+ T cells (BCNU alone) is listed as “did not result in growth delay”. Moreover, the “dose dependence of CD4 cell killing / toxicity” value with Human CD4+ T cells is reported as “toxicity to CD4 cells increased with the BCNU dose”.

Turning to `Nc1nc(OCc2ccccc2)c2nc[nH]c2n1` [BG, O^6-benzylguanine], in the series with Human CD4+ T cells, the “dose dependence of CD4 cell killing / toxicity” value was “did not increase cell killing”.

In the case of `Nc1ccn([C@H]2CC[C@@H](CO)O2)c(=O)n1` [ddC], the “range virustatic in most patients” value with HIV is given as 0.005-0.25 mg/kg body weight.

Turning to “CACACAACACTGATGAGGCCGAAAGGCCGAAACGGGCACA (expressed or natural sequence) [the +115 ribozyme]”, in series [1], the “cleavage of modified U5-containing crHIV RNA” value was “cleavage products were not detected”. In the series on wild-type U5-HIV RNA, the “cleavage of wild-type U5-HIV RNA” value is recorded as “cleavage was readily observed”.

These data come from patent publication US20040033595A1, “Conditionally replicating vectors for inhibiting viral infections” (priority 2001, published 2004).
